Assay results from patent US20240115645A1, “DRUG FOR TREATING UROLITHIASIS-RELATED DISEASE, AND PREPARATION METHOD THEREFOR” (HONG ZHANG, priority 2021, published 2024).

What was measured:
SD rats [1] = test: Serum CRE and BUN levels of urolithiasis model rats; format: in vivo, rat; settings: all groups, 4 weeks
Excerpt: (§1) II. Experimental example of pharmacological activity • 1. Preparation of test samples • (1) High-dose group test sample: the water-extracted, 0-25% ethanol gradient eluent by polyamide column prepared in Preparation Example 5 was concentrated and dried to obtain the active ingredient extract. A solution with a density of about 1.2 g/ml was formulated, and the concentration of the effective substance measured by the pharmacopoeia standard and the absorbance method (using rutin as a standard substance to make a standard curve) is about 130.4 mg/ml. • (2) Medium-dose group test sample: the high-dose group sample was diluted once to obtain the middle-dose group test sample. • (3) Low-dose group test sample: the middle-dose group sample was dilute once to obtain the low-dose group test sample. • (4) Positive control group test sample: potassium sodium hydrogen citrate aqueous solution with a concentration of 100 mg/ml, 3 ml per day, equivalent to 300 mg/d. • 2. Animal experiments • 2.1. Experimental animals and feeding conditions
(§2) 36 male SD rats of SPF grade, 6-8 weeks old, 200-250 g. • 2.2.3 Model preparation […]

SD rats [2] = test: Ca2+ concentration in serum, urine and kidney tissue of urolithiasis model rats; format: in vivo, rat; settings: potassium sodium hydrogen citrate drug group, 300 mg/d
Excerpt: as §1, §2

SD rats [3] = test: Kidney lesions under HE microscope in rat urolithiasis model (1% ethylene glycol + 2% ammonium chloride); format: in vivo; design: key to Renal tubule dilation lesions / Renal interstitial inflammatory cell infiltration / Calcium oxalate crystal aggregation: No lesion was represented by −; mild lesion was +; lesion was ++; significant lesion was +++; settings: potassium sodium hydrogen citrate group
Excerpt: as §1
36 male SD rats of SPF grade, 6-8 weeks old, 200-250 g. • 2.2.3 Model preparation
SD rats were fed adaptively for 7 days, and all groups (except the normal group) were administered 1% ethylene glycol (by drinking water)+2% ammonium chloride (by intragastric administration) 2 ml/rat to establish a model for 28 consecutive days. • 2.2.4 Experimental grouping and processing
36 male SD rats were randomly divided into 6 groups according to body weight, 6 rats in each group. These are normal group, model group, potassium sodium hydrogen citrate group, traditional Chinese medicine extract (low, medium, high) dose group. During the modeling process, 3 ml of the drug was administered by intragastric administration every day, and the drug included the positive control drug and the purified part through the polyamide column. The animals were euthanized after 4 weeks. • 2.2.5 Kidney
The kidney tissues were peeled off in vivo, the kidney on one side was stored in a cryopreservation tube at −80° C. for tissue homogenate to detect Ca2+ concentration, and the kit operation steps were the same as above; the […] kidney on the other side was fixed in formalin solution for tissue sectioning to perform HE staining. • (1) The steps for making paraffin sections were as follows:
(1) fixation, (2) trimming, (3) dehydration, (4) transparency, (5) wax immersion, (6) embedding, (7) slicing, (8) baking slices, (9) preservation: packed in boxes and stored at room temperature. • (2) HE staining steps were as follows:
(1) dewaxing and rehydration, (2) dyeing, (3) dehydration, transparency, mounting,
(4) staining results: the nucleus was blue, the cytoplasm was pink, and the red blood cells were bright red. • 3. Test results • 3.1. Positive test results for calcium oxalate crystals in rat urine
The results consisted of three parts: calcium oxalate crystal aggregation, renal tubule dilation lesions, and chronic renal interstitial inflammatory cell infiltration.

[4] = 100 mg/ml, 3 ml per day (300 mg/d) intragastric, 4 weeks

SMILES: O.O=C([O-])CC(O)(CC(=O)[O-])C(=O)O.O=C([O-])CC(O)(CC(=O)[O-])C(=O)O.O=C([O-])CC(O)(CC(=O)[O-])C(=O)O.O=C([O-])CC(O)(CC(=O)[O-])C(=O)[O-].O=C([O-])CC(O)(CC(=O)[O-])C(=O)[O-].[K+].[K+].[K+].[K+].[K+].[K+].[Na+].[Na+].[Na+].[Na+].[Na+].[Na+] [potassium sodium hydrogen citrate]
- BUN levels in serum, order of groups from high to low (SD rats [1]): model group>low dose treatment group>potassium sodium hydrogen citrate drug group>medium dose treatment group>high dose treatment group>normal group
- CRE levels in serum, order of groups from high to low (SD rats [1]): model group>medium dose treatment group>potassium sodium hydrogen citrate drug group>low dose treatment group>high dose treatment group>normal group
- Ca2+ concentration in kidney tissue, difference compared with the model group and the normal group (SD rats [2]): very significant difference (P<0.01)
- Ca2+ concentration in kidney tissue, rank among groups (SD rats [2]): highest concentration
- Calcium oxalate crystal aggregation (SD rats [3]; [4]): ++
- Renal interstitial inflammatory cell infiltration (SD rats [3]; [4]): +
- Renal tubule dilation lesions (SD rats [3]; [4]): ++
- brownish yellow calcium oxalate crystals under the HE microscope, compared with the model group (SD rats [3]; 300 mg/d): did not decrease significantly
- inflammatory cell infiltration in the renal interstitium under the HE microscope (SD rats [3]; 300 mg/d): occasionally seen
- renal tubule dilatation under the HE microscope, compared with the model group (SD rats [3]; 300 mg/d): improved
